Laboratory results as given in ChEMBL document CHEMBL5532680, “Identification of a Sonically Activated Degrader of Methionine Adenosyltransferase 2A by an in Silico Approach Assisted with the Hole-Electron Analysis” (J Med Chem, 2024).
Calls of active or inactive are those of the source. The calls are words filed in the database; no cut-off is given here.

Legend:
[1] = Induction of ROS generation in PBS at 10 uM incubated for 10 mins under 1.0 MHz, 1.2W/cm2 ultrasound treatment by DCFH staining based fluorescence assay; type: functional
HCT-116 = experiment: Induction of apoptosis in MTAP knocked out human HCT-116 cells at 0.1 uM preincubated for 24 hrs followed by sonication for 4 mins by annexin V-FITC/PI staining based flow cytometry analysis relative to control; type: functional, cell-based; settings: time 1444.0 min

Compound | Activity [1] | Activity (HCT-116)
CCOc1ncc2cc(-c3ccc4nc5n(c4c3)CCN(C(C)=O)C5)c(=O)n(-c3ccc(OC(F)F)cc3)c2n1 | inactive | –
CCOc1ncc2cc(-c3ccc4c(c3)C3(CC3)CO4)c(=O)n(-c3ccc(OC(F)F)cc3)c2n1 | Active | –
CCOc1ncc2cc(-c3ccc4nc5n(c4c3)CCN(C)C5)c(=O)n(-c3ccc(OC(F)F)cc3)c2n1 | inactive | Active
CCOc1ncc2cc(-c3ccc4c(c3)OCC3(CCN(C)CC3)O4)c(=O)n(-c3ccc(OC(F)F)cc3)c2n1 | Active | –
